Where a SMILES comes first, the peptide text is derived from it.
Biological target: T1, purified rabbit kidney NEP (Oryctolagus cuniculus, UniProt P08049)
T1 construct: using purified rabbit kidney NEP; from tissue; host or cells: rabbit kidney
T1 sequence (P08049 1-750): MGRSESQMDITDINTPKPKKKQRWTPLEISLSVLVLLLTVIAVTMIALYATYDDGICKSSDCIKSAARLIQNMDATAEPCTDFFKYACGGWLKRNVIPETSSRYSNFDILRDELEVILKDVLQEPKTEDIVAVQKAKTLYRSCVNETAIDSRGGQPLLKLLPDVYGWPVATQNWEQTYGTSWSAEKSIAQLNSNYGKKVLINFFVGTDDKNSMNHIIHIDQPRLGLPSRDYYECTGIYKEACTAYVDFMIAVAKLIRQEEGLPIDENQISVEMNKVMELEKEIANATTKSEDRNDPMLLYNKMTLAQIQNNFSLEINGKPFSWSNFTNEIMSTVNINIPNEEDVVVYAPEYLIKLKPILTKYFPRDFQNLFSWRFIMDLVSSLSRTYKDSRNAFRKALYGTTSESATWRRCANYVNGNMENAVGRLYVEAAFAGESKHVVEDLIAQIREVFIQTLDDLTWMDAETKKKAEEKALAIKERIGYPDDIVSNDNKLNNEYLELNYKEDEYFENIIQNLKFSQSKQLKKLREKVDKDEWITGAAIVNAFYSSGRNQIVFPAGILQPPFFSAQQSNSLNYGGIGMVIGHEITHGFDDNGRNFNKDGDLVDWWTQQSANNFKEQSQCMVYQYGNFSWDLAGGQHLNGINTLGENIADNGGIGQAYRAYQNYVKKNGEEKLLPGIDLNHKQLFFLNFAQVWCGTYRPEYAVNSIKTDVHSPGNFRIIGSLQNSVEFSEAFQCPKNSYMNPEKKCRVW
Assay: Direct interaction with purified rabbit kidney NEP in vitro
Format: binding

N=C(N)NCCC[C@H](NC(=O)[C@@H]1CCCN1C(=O)[C@H](CC(N)=O)NC(=O)[C@H](Cc1c[nH]cn1)NC(=O)[C@@H](N)CCC(N)=O)C(=O)O [SMR1-QHNPR, QHNPR] (H-QHNPR-OH; N-terminus and C-terminus assumed)
direct interaction with NEP: direct interaction of rat kidney NEP and SMR1-Pentapeptide was demonstrated
